Source: PubChem BioAssay (NCI)
Values joined by “and” are separate entries in the source; they are usually repeats but may differ in a detail not shown here. Equal entries are not always repeated.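 Protocol summary: plate cells (96-well), add compound at 5 concentrations, incubate 48 h, interpolate endpoints linearly. GI50 is the concentration that inhibits growth by half. At the TGI there is no net growth.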

Columns and labels:
Assay in all cases: NCI tumour cell line growth inhibition, 48 h
[1] = tested on: 786-0 renal
[2] = tested on: A498 renal
[3] = tested on: A549 NSCLC
[4] = tested on: ACHN renal
[5] = tested on: BT-549 breast
[6] = tested on: CAKI-1 renal
[7] = tested on: CCRF-CEM leukemia
[8] = tested on: COLO 205 colon
[9] = tested on: DLD-1 colon
[10] = tested on: DMS 273 small cell lung
[11] = tested on: DU-145 prostate
[12] = tested on: EKVX NSCLC
[13] = tested on: HCC-2998 colon
[14] = tested on: HCT-116 colon
[15] = tested on: HL-60(TB) leukemia
[16] = tested on: HOP-18 NSCLC
[17] = tested on: HOP-62 NSCLC
[18] = tested on: HOP-92 NSCLC
[19] = tested on: HS 578T breast
[20] = tested on: HT29 colon
[21] = tested on: IGROV1 ovarian
[22] = tested on: K-562 leukemia
[23] = tested on: KM12 colon
[24] = tested on: KM20L2 colon
[25] = tested on: LOX IMVI melanoma
[26] = tested on: LXFL 529 NSCLC
[27] = tested on: M14 melanoma
[28] = tested on: M19-MEL melanoma
[29] = tested on: MALME-3M melanoma
[30] = tested on: MCF7 breast
[31] = tested on: MDA-MB-231 breast
[32] = tested on: MDA-MB-435
[33] = tested on: MDA-N
[34] = tested on: MOLT-4 leukemia
[35] = tested on: NCI-H226 lung
[36] = tested on: NCI-H23 lung
[37] = tested on: NCI-H460 lung
[38] = tested on: NCI-H522 lung
[39] = tested on: NCI/ADR-RES ovarian
[40] = tested on: OVCAR-3 ovarian
[41] = tested on: OVCAR-4 ovarian
[42] = tested on: OVCAR-5 ovarian
[43] = tested on: OVCAR-8 ovarian
[44] = tested on: PC-3 prostate
[45] = tested on: RPMI-8226 leukemia
[46] = tested on: RXF 393 renal
[47] = tested on: RXF-631 renal
[48] = tested on: SF-268 CNS
[49] = tested on: SF-295 CNS
[50] = tested on: SF-539 CNS
[51] = tested on: SK-MEL-2 melanoma
[52] = tested on: SK-MEL-28 melanoma
[53] = tested on: SK-MEL-5 melanoma
[54] = tested on: SK-OV-3 ovarian
[55] = tested on: SN12C renal
[56] = tested on: SNB-19 CNS
[57] = tested on: SNB-75 CNS
[58] = tested on: SNB-78 CNS
[59] = tested on: SR leukemia
[60] = tested on: SW-620 colon
[61] = tested on: T-47D breast
[62] = tested on: TK-10 renal
[63] = tested on: U251 CNS
[64] = tested on: UACC-257 melanoma
[65] = tested on: UACC-62 melanoma
[66] = tested on: UO-31 renal
[67] = tested on: XF 498 CNS
[68] = tested on: DMS 114 small cell lung
[69] = tested on: P388 leukemia
[70] = tested on: P388/ADR leukemia
[71] = tested on: SN12K1 renal

With `CCCCCCCCCCCCCCCCCCN(C)C(COC)COP(=O)([O-])OCC[N+](C)(C)C` (stereo not given) the TGI [1] was 3.56 µM, the TGI [2] was 34.1 µM and the TGI [3] was 21.1 µM. For the same molecule, the TGI [4] was 26.9 µM, the TGI [5] was 26 µM and the TGI [6] was 15.7 µM. The TGI [7] was 7.41 µM, the TGI [8] was 3.22 µM and the TGI [9] was 13.8 µM. It also gave a TGI [10] of 2.92 µM, a TGI [11] of 24.5 µM and a TGI [12] of 34.2 µM. For the same molecule, the TGI [13] was 3.46 µM, the TGI [14] was 17 µM and the TGI [15] was 4.34 µM. It also gave a TGI [16] of 17 µM, a TGI [17] of 12.1 µM and a TGI [18] of 5.17 µM. The TGI [19] was 22.5 µM, the TGI [20] was 9.44 µM and the TGI [21] was 3.27 µM. It also gave a TGI [22] of 31.3 µM, a TGI [23] of 3.2 µM and a TGI [24] of 6.92 µM. For the same molecule, the TGI [25] was 18.8 µM, the TGI [26] was 15.4 µM and the TGI [27] was 13.7 µM. It also gave a TGI [28] of 12.9 µM, a TGI [29] of 29.5 µM and a TGI [30] of 23.7 µM. It also gave a TGI [31] of 19.6 µM, a TGI [32] of 33.9 µM and a TGI [33] of 31.1 µM. The TGI [34] was 4.28 µM, the TGI [35] was 12.1 µM and the TGI [36] was 23.9 µM. For the same molecule, the TGI [37] was 4.38 µM, the TGI [38] was 10.7 µM and the TGI [39] was over 58.3 µM. For the same molecule, the TGI [40] was 22.4 µM, the TGI [41] was 12.3 µM and the TGI [42] was 6.32 µM. The TGI [43] was 26.3 µM, the TGI [44] was 3.32 µM and the TGI [45] was 5.85 µM. The TGI [46] was 3.12 µM, the TGI [47] was 26 µM and the TGI [48] was 12.5 µM. For the same molecule, the TGI [49] was 10.3 µM, the TGI [50] was 19 µM and the TGI [51] was 35.6 µM. For the same molecule, the TGI [52] was 36.7 µM, the TGI [53] was 29.9 µM and the TGI [54] was 25.8 µM. For the same molecule, the TGI [55] was 19.5 µM, the TGI [56] was 14.1 µM and the TGI [57] was 8.3 µM. It also gave a TGI [58] of 18.3 µM, a TGI [59] of 22.9 µM and a TGI [60] of 21.2 µM. The TGI [61] was 34.1 µM, the TGI [62] was 4.43 µM and the TGI [63] was 4.2 µM. The TGI [64] was 29.5 µM, the TGI [65] was 19.2 µM and the TGI [66] was 31.4 µM. For the same molecule, the TGI [67] was 39.8 µM.

With `CC(=O)O[C@H]1C(=O)[C@@]2(C)[C@H]([C@H](OC(=O)c3ccccc3)[C@]3(O)C[C@H](OC(=O)[C@H](O)[C@@H](NC(=O)c4ccccc4)c4ccccc4)C(C)=C1C3(C)C)[C@]1(OC(C)=O)CO[C@@H]1C[C@@H]2O` the TGI [3] was 25 µM and > 100 µM and 67.7 µM, the GI50 [9] was 0.0551 µM and the TGI [9] was 24.4 µM and > 100 µM. It also gave a TGI [68] of 0.0217 µM, a TGI [10] of 3.68 µM and a TGI [16] of 25 µM. The GI50 [26] was 0.00356 µM, the TGI [26] was 55.2 µM and the TGI [30] was 15.1 µM and 88.4 µM and 56.1 µM. The GI50 [33] was 0.0025 µM and 0.0231 µM, the TGI [39] was 15.1 µM and > 100 µM and 37.5 µM and the TGI [69] was 25 µM. The TGI [70] was 25 µM, the TGI [52] was 25 µM and > 71 µM and the TGI [71] was 25 µM. For the same molecule, the GI50 [58] was 0.087 µM, the TGI [58] was 24.3 µM and 45.1 µM and the TGI [67] was 0.0355 µM.
